Measured values as given in patent publication US11701372B2, “Inhalation formulations of 1'-cyano substituted carba-nucleoside analogs” (priority 2020, dated 2023).
Where two headings read alike, the source gives them in different places.

What was measured:
[1] = type: physicochemical; settings: for % assay/degs: T = 0
Experimental: For each condition, samples were staged at ambient and refrigerated conditions. Samples were analyzed for % assay/degs, appearance, reconstitution time, pH, and compared to T=0. The structures of the key impurities/metabolites are shown below.

[2] = In use testing of reconstituted solutions in IV bags and IV tubings; type: physicochemical
Text: The IV bags and IV tubings were sampled over time and tested for % assay/degradation.

[3] = PK following IV administration of Formula Ia in African Green Monkeys; design: species or system African Green Monkeys; settings: monkey, in vivo; 10 mg/kg IV AGM; read-out: AUC0-t
[4] = in vivo; settings: both, monkey, inhaled or intranasal
Experimental: The average deposited dose was calculated at 0.168 mg/kg and 0.536 mg/kg, respectively. Plasma, peripheral blood mononuclear cells (PBMCs), trachea, bronchi, lung lobe, liver, kidney, nasal mucosa and nasopharyngeal mucosa samples were collected in this study.

Q: For `N#C[C@@]1(c2ccc3c(N)ncnn23)O[C@H](CO)[C@@H](O)[C@H]1O` [Compound A], which “% assay/degs, difference from T = 0” value ([1]; pH 1.8, 2-8° C., 2 h) is on record?
A: 0.00%

Q: And the “% assay/degs, difference from T = 0” value ([1]; pH 1.8, 2-8° C., 3 h)?
A: 0.00%

Q: And the “% assay/degs, difference from T = 0” value ([1]; pH 1.8, 2-8° C., 8 h)?
A: 0.00%

Q: What about the “% assay/degs, difference from T = 0” value ([1]; pH 1.8, 2-8° C., 24 h) of the same compound?
A: 0.01%

Q: What about the “% assay/degs, difference from T = 0” value ([1]; pH 1.8, 2-8° C., 48 h) of the same compound?
A: 0.02%

Q: And the “% assay/degs, difference from T = 0” value ([1]; pH 1.8, Ambient, 1 h)?
A: 0.00%

Q: What about the “% assay/degs, difference from T = 0” value ([1]; pH 1.8, Ambient, 2 h) of the same compound?
A: 0.00%

Q: And the “% assay/degs, difference from T = 0” value ([1]; pH 1.8, Ambient, 3 h)?
A: 0.01%

Q: And the “% assay/degs, difference from T = 0” value ([1]; pH 1.8, Ambient, 8 h)?
A: 0.01%

Q: What about the “% assay/degs, difference from T = 0” value ([1]; pH 1.8, Ambient, 24 h) of the same compound?
A: 0.05%

Q: What about the “% assay/degs, difference from T = 0” value ([1]; pH 1.8, Ambient, 48 h) of the same compound?
A: 0.09%

Q: And the “% assay/degs” value ([1]; pH 1.8)?
A: 0.02%

Q: What about the “% assay/degs, difference from T = 0” value ([1]; pH 2.0, 2-8° C., 2 h) of the same compound?
A: 0.00%

Q: And the “% assay/degs, difference from T = 0” value ([1]; pH 2.0, 2-8° C., 3 h)?
A: 0.00%

Q: What about the “% assay/degs, difference from T = 0” value ([1]; pH 2.0, 2-8° C., 8 h) of the same compound?
A: 0.00%

Q: And the “% assay/degs, difference from T = 0” value ([1]; pH 2.0, 2-8° C., 24 h)?
A: 0.00%

Q: And the “% assay/degs, difference from T = 0” value ([1]; pH 2.0, 2-8° C., 48 h)?
A: 0.01%

Q: And the “% assay/degs, difference from T = 0” value ([1]; pH 2.0, Ambient, 1 h)?
A: 0.00%

Q: What about the “% assay/degs, difference from T = 0” value ([1]; pH 2.0, Ambient, 2 h) of the same compound?
A: 0.00%

Q: What about the “% assay/degs, difference from T = 0” value ([1]; pH 2.0, Ambient, 3 h) of the same compound?
A: 0.00%

Q: And the “% assay/degs, difference from T = 0” value ([1]; pH 2.0, Ambient, 8 h)?
A: 0.01%

Q: And the “% assay/degs, difference from T = 0” value ([1]; pH 2.0, Ambient, 24 h)?
A: 0.03%

Q: And the “% assay/degs, difference from T = 0” value ([1]; pH 2.0, Ambient, 48 h)?
A: 0.06%

Q: What about the “% assay/degs” value ([1]; pH 2.0) of the same compound?
A: 0.02%

Q: What about the “% assay/degs, difference from T = 0” value ([1]; pH 3.5, 2-8° C., 2 h) of the same compound?
A: 0.00%

Q: What about the “% assay/degs, difference from T = 0” value ([1]; pH 3.5, 2-8° C., 8 h) of the same compound?
A: 0.00%

Q: What about the “% assay/degs, difference from T = 0” value ([1]; pH 3.5, 2-8° C., 24 h) of the same compound?
A: 0.00%

Q: What about the “% assay/degs, difference from T = 0” value ([1]; pH 3.5, 2-8° C., 48 h) of the same compound?
A: 0.00%

Q: What about the “% assay/degs, difference from T = 0” value ([1]; pH 3.5, 2-8° C., 72 h) of the same compound?
A: 0.00%

Q: What about the “% assay/degs, difference from T = 0” value ([1]; pH 3.5, 2-8° C., 96 h) of the same compound?
A: 0.00%

Q: And the “% assay/degs, difference from T = 0” value ([1]; pH 3.5, 2-8° C., 168 h)?
A: 0.00%

Q: What about the “% assay/degs, difference from T = 0” value ([1]; pH 3.5, Ambient, 2 h) of the same compound?
A: 0.00%

Q: And the “% assay/degs, difference from T = 0” value ([1]; pH 3.5, Ambient, 8 h)?
A: 0.00%

Q: What about the “% assay/degs, difference from T = 0” value ([1]; pH 3.5, Ambient, 24 h) of the same compound?
A: 0.00%

Q: And the “% assay/degs, difference from T = 0” value ([1]; pH 3.5, Ambient, 48 h)?
A: 0.00%

Q: And the “% assay/degs, difference from T = 0” value ([1]; pH 3.5, Ambient, 72 h)?
A: 0.00%

Q: What about the “% assay/degs, difference from T = 0” value ([1]; pH 3.5, Ambient, 96 h) of the same compound?
A: 0.01%

Q: What about the “% assay/degs, difference from T = 0” value ([1]; pH 3.5, Ambient, 168 h) of the same compound?
A: 0.01%

Q: And the “% assay/degs” value ([1]; pH 3.5)?
A: 0.02%

Q: What about the “% assay/degs, difference from T = 0” value ([1]; pH 3.8, 2-8° C., 7.2 h) of the same compound?
A: 0.00%

Q: What about the “% assay/degs, difference from T = 0” value ([1]; pH 3.8, 2-8° C., 24 h) of the same compound?
A: 0.00%

Q: What about the “% assay/degs, difference from T = 0” value ([1]; pH 3.8, 2-8° C., 96 h) of the same compound?
A: 0.00%

Q: And the “% assay/degs, difference from T = 0” value ([1]; pH 3.8, 2-8° C., 168 h)?
A: 0.00%

Q: And the “% assay/degs, difference from T = 0” value ([1]; pH 3.8, Ambient, 7.2 h)?
A: 0.00%

Q: And the “% assay/degs, difference from T = 0” value ([1]; pH 3.8, Ambient, 24 h)?
A: 0.00%

Q: And the “% assay/degs, difference from T = 0” value ([1]; pH 3.8, Ambient, 96 h)?
A: 0.00%

Q: What about the “% assay/degs, difference from T = 0” value ([1]; pH 3.8, Ambient, 168 h) of the same compound?
A: 0.00%

Q: And the “% assay/degs” value ([1]; pH 3.8)?
A: 0.02%

Q: And the “% assay/degs, difference from T = 0” value ([1]; pH 4.0, 2-8° C., 7.2 h)?
A: 0.00%

Q: And the “% assay/degs, difference from T = 0” value ([1]; pH 4.0, 2-8° C., 24 h)?
A: 0.00%

Q: And the “% assay/degs, difference from T = 0” value ([1]; pH 4.0, 2-8° C., 96 h)?
A: 0.00%

Q: What about the “% assay/degs, difference from T = 0” value ([1]; pH 4.0, 2-8° C., 168 h) of the same compound?
A: 0.00%

Q: And the “% assay/degs, difference from T = 0” value ([1]; pH 4.0, Ambient, 7.2 h)?
A: 0.00%

Q: What about the “% assay/degs, difference from T = 0” value ([1]; pH 4.0, Ambient, 24 h) of the same compound?
A: 0.00%

Q: And the “% assay/degs, difference from T = 0” value ([1]; pH 4.0, Ambient, 96 h)?
A: 0.00%

Q: What about the “% assay/degs, difference from T = 0” value ([1]; pH 4.0, Ambient, 168 h) of the same compound?
A: 0.00%

Q: What about the “% assay/degs” value ([1]; pH 4.0) of the same compound?
A: 0.02%

Q: What about the “% assay/degradation” value ([2]; 0 h, 0.3 mg/mL) of the same compound?
A: 0.02 % w/w

Q: And the “% assay/degradation” value ([2]; 30 mg (IV Bag), Ambient 8 h)?
A: 0.02 % w/w

Q: And the “% assay/degradation” value ([2]; 30 mg (IV Bag), Ambient 24 h)?
A: 0.02 % w/w

Q: What about the “% assay/degradation” value ([2]; 30 mg (IV Bag), T = 0 (2-8° C. series)) of the same compound?
A: 0.02 % w/w

Q: And the “% assay/degradation” value ([2]; 30 mg (IV Tube), Ambient 6 Hours)?
A: 0.03 % w/w

Q: And the “% assay/degradation” value ([2]; 200 mg (IV Bag), 2-8° C. 24 h)?
A: 0.02 % w/w

Q: What about the “% assay/degradation” value ([2]; 200 mg (IV Bag), 2-8° C. 48 h) of the same compound?
A: 0.02 % w/w

Q: And the “% assay/degradation” value ([2]; 200 mg (IV Bag), Ambient 8 h)?
A: 0.02 % w/w

Q: And the “% assay/degradation” value ([2]; 200 mg (IV Bag), Ambient 24 h)?
A: 0.02 % w/w

Q: What about the “% assay/degradation” value ([2]; 200 mg (IV Bag), T = 0 (2-8° C. series)) of the same compound?
A: 0.02 % w/w

Q: And the “% assay/degradation” value ([2]; 200 mg in 100 mL 0.9% Saline (IV Bag), T = 0 (Ambient series))?
A: 0.02 % w/w

Q: And the “% assay/degradation” value ([2]; 4 h, 0.3 mg/mL)?
A: 0.02 % w/w

Q: And the “% assay/degradation” value ([2]; 4 h, 2 mg/mL)?
A: 0.02 % w/w

Q: What about the “% assay/degradation” value ([2]; 6 h, 2 mg/mL) of the same compound?
A: 0.02 % w/w

Q: What about the “% assay/degradation” value ([2]; 24 h, 0.3 mg/mL) of the same compound?
A: 0.02 % w/w

Q: What about the “% assay/degradation” value ([2]; 48 h, 0.3 mg/mL) of the same compound?
A: 0.02 % w/w

Q: What about the AUC(0-t) [3] of the same compound?
A: 9.06 µM·h

Q: And the Tmax ([4]; 0.168 mg/kg)?
A: 1 h

Q: And the Cmax ([4]; 0.536 mg/kg)?
A: 71 ± 11 nM

Q: What about the Tmax ([4]; 0.536 mg/kg) of the same compound?
A: 2 h
